What all share (type): cell-based
What all share (conditions): CreLuc reporter gene assay

One test has as its target T1, hGLP1R (Homo sapiens, UniProt P43220).
T1 construct: expressed in transfected cells; host or cells: HEK-293 cells carrying a CRE-luciferase reporter gene
Nature of the test: hGLP1R CreLuc reporter gene assay in 0.5% and 100% plasma. In outline: (§1)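 HEK-293 cells co-expressing GLP-1 or NPY2 receptor and CHO cells expressing GIP receptor, each carrying a CRE-driven luciferase reporter, were stimulated with peptides for 4 hours at 37 °C. Luminescence was read after Bright-Glo addition. EC50 came from 8-point, four-decade curves fitted by variable-slope non-linear regression.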
In general terms: A reporter such as luciferase makes a cellular process visible.

The target of a further test is T2, hGIPR (Homo sapiens, UniProt P48546).
T2 construct: expressed in transfected cells; host or cells: CHO cells carrying a CRE-luciferase reporter gene
T2 sequence (P48546 22-466): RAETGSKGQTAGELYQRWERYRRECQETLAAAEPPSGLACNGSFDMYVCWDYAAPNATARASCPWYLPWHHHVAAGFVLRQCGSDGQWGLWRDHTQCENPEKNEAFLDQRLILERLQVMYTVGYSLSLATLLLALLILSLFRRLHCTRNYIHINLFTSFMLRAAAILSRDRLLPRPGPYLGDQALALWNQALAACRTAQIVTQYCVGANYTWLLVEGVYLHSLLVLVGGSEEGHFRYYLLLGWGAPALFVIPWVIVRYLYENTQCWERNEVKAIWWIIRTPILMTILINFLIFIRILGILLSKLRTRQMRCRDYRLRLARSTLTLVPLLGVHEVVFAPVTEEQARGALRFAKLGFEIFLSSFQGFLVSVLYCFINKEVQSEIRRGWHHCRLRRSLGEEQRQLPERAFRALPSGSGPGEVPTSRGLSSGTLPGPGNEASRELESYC
Nature of the test: hGIPR CreLuc reporter gene assay in 0.5% and 100% plasma. In outline: as §1

In another test the target is T3, hNPY2R (Homo sapiens, UniProt P49146).
T3 construct: expressed in transfected cells; host or cells: HEK-293 cells carrying a CRE-luciferase reporter gene
T3 sequence (P49146 1-381): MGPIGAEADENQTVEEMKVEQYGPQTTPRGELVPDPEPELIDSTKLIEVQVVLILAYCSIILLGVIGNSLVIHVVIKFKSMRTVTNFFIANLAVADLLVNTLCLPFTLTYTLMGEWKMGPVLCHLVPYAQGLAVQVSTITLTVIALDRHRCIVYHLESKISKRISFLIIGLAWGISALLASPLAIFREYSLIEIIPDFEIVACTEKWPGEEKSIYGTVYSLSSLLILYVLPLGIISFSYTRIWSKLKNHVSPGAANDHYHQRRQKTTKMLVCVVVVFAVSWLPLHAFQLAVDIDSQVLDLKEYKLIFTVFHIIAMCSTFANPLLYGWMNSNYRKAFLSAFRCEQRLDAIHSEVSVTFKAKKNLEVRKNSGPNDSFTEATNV
Nature of the test: hNPY2R CreLuc reporter gene assay in 0.5% and 100% plasma. An outline of the steps: as §1

[1] abbreviates: 0.5% human plasma, read-out: hGLP1R 0.5% hP.
[2] abbreviates: 0.5% human plasma, read-out: hGIPR 0.5% hP.
The mark [3] stands for this setting: 0.5% human plasma, read-out: hNPY2R 0.5% hP.
[4] abbreviates: 100% human plasma, read-out: hGIPR 100% hP.
The mark [5] stands for this setting: 100% human plasma, read-out: hNPY2R 100% hP.
[6] abbreviates: 100% human plasma, read-out: hGLP1R 100% hP.

pEC50: −log10 of the molar value. Like-named read-outs stand apart in the source and are kept apart here. Starred links: 1 amine or outer side, 2 acyl side, 3 side chain; linkers in the order of their positions; H or OH if unused. Non-standard residues stand in square brackets, D forms with d. Groups on a side chain read outwards from the residue. *: point of attachment. C20 diacid = O=C(O)CCCCCCCCCCCCCCCCCCC(=O)*; C18 diacid = O=C(O)CCCCCCCCCCCCCCCCC(=O)*; γGlu = O=C(O)[C@H](CCC(=O)[*:2])N[*:1]; εLys = N[C@@H](CCCCN[*:1])C(=O)[*:2]; NMeR = CN[C@@H](CCCNC(=N)N)C(=O)O; AEEA = NCCOCCOCC(=O)O; Aib = CC(C)(N)C(=O)O

T1 sequence (P43220 24-463): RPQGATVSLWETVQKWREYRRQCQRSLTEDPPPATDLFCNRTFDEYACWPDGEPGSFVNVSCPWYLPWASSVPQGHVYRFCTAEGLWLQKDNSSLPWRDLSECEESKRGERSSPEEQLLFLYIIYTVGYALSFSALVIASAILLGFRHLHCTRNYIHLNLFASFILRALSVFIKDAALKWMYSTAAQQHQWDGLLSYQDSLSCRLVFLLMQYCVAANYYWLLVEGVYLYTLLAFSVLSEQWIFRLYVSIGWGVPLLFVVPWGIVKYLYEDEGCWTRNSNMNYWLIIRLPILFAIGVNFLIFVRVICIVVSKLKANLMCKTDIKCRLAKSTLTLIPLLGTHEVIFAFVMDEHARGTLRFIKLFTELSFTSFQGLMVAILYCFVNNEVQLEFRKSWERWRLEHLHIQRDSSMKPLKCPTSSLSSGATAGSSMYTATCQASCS

With “H-Y[Aib]EGTFTSDYSI[Aib]LEK(Ac)QAQ[Aib]AFVEWLIK([εLys-γGlu-γGlu-γGlu-γGlu-γGlu-γGlu-C20 diacid])GGPSSGASLRHYYNWLTRQRY-NH2 [Compound 192, Y-Aib-E-G-T-F-T-S-D-Y-S-I-Aib-L-E-KAc-Q-A-Q-Aib-A-F-V-E-W-L-I-K(1,3)-GGPSSGASLRHYYNWLTRQRY-NH2.C20DA-gGlu-gGlu-gGlu-gGlu-gGlu-glu-eLys(1,2)]”, the values for the pEC50 on hGLP1R (setting [1]), on hGIPR (setting [2]) and on hNPY2R (setting [3]) were 9.89, 9.55 and 7.69, respectively.

Regarding “H-Y[Aib]EGTFTSDYSI[Aib]LEKQAQ[Aib]AFVQWLIK([AEEA-AEEA-γGlu-γGlu-γGlu-C18 diacid])GGPEEGASLRHYYNWLTRQRY-NH2 [Compound 144, Y-Aib-E-G-T-F-T-S-D-Y-S-I-Aib-L-E-K-Q-A-Q-Aib-A-F-V-Q-W-L-I-K(1,3)-GGPEEGASLRHYYNWLTRQRY-NH2.C18DA-gGlu-gGlu-gGlu-OEG-OEG(1,2)]”, the pEC50 on hGLP1R (setting [1]) was 9.80; at hGIPR (setting [2]), 8.94; at hGIPR (setting [4]) it was 9.10; at hNPY2R (setting [3]) it was 7.80; at hNPY2R (setting [5]), 7.31.

As for “H-Y[Aib]EGTFTSDYSI[Aib]LEKQAQ[Aib]AFVQWLIK([εLys-γGlu-γGlu-γGlu-γGlu-γGlu-C20 diacid])GGPSEPASLRHYYNWLTRQRY-NH2 [Compound 169, Y-Aib-E-G-T-F-T-S-D-Y-S-I-Aib-L-E-K-Q-A-Q-Aib-A-F-V-Q-W-L-I-K(1,3)-GGPSEPASLRHYYNWLTRQRY-NH2.C20DA-gGlu-gGlu-gGlu-gGlu-gGlu-eLys(1,2)]”, the pEC50 at hGLP1R (setting [1]) was 9.89; on hGIPR (setting [2]), 9.59; on hNPY2R (setting [3]) it was 7.99; on hNPY2R (setting [5]), 7.30.

As for “H-Y[Aib]EGTFTSDYSI[Aib]LEKQAQ[Aib]EFVEWLIK([AEEA-AEEA-γGlu-γGlu-γGlu-γGlu-C20 diacid])GGPSSGASLRHYYNWLTRQRY-NH2 [Compound 205, Y-Aib-E-G-T-F-T-S-D-Y-S-I-Aib-L-E-K-Q-A-Q-Aib-E-F-V-E-W-L-I-K(1,3)-GGPSSGASLRHYYNWLTRQRY-NH2.C20DA-gGlu-gGlu-gGlu-gGlu-OEG-OEG(1,2)]”, the pEC50 is 9.36 on hGLP1R (setting [1]), 9.48 on hGIPR (setting [2]) and 7.98 on hNPY2R (setting [3]).

Turning to “H-Y[Aib]EGTFTSDYSI[Aib]LEKQAQ[Aib]AFVEWLIK([εLys-γGlu-γGlu-γGlu-γGlu-γGlu-γGlu-C20 diacid])GGPSSYESLRHYYNWLTRQRY-NH2 [Compound 50, Y-Aib-E-G-T-F-T-S-D-Y-S-I-Aib-L-E-K-Q-A-Q-Aib-A-F-V-E-W-L-I-K(1,3)-GGPSSYESLRHYYNWLTRQRY-NH2.C20DA-gGlu-gGlu-gGlu-gGlu-gGlu-gGlu-eLys(1,2)]”, the results for the pEC50 on hGLP1R (setting [1]), on hGIPR (setting [2]) and on hNPY2R (setting [3]) were 9.89, 9.92 and 7.93, respectively.

As to “H-Y[Aib]EGTFTSDYSI[Aib]LEKQAQ[Aib]AFVEWLIK([εLys-γGlu-γGlu-γGlu-γGlu-γGlu-γGlu-C20 diacid])GGPSEGQSLRHYYNWLTRQRY-NH2 [Compound 227, Y-Aib-E-G-T-F-T-S-D-Y-S-I-Aib-L-E-K-Q-A-Q-Aib-A-F-V-E-W-L-I-K(1,3)-GGPSEGQSLRHYYNWLTRQRY-NH2.C20DA-gGlu-gGlu-gGlu-gGlu-gGlu-gGlu-eLys(1,2)]”, the pEC50 on hGLP1R (setting [1]) was 9.89; on hGLP1R (setting [6]), 8.51; on hGIPR (setting [2]), 10.22; at hGIPR (setting [4]), 8.91; on hNPY2R (setting [3]) it was 7.99.

Consider “H-Y[Aib]EGTFTSDYSI[Aib]LEKQAQ[Aib]AFVQWLIK([AEEA-AEEA-γGlu-γGlu-γGlu-γGlu-γGlu-C18 diacid])GGPSEPASLRHYYNWLTRQRY-NH2 [Compound 142, Y-Aib-E-G-T-F-T-S-D-Y-S-I-Aib-L-E-K-Q-A-Q-Aib-A-F-V-Q-W-L-I-K(1,3)-GGPSEPASLRHYYNWLTRQRY-NH2.C18DA-gGlu-gGlu-gGlu-gGlu-gGlu-OEG-OEG(1,2)]”, for which the pEC50 at hGLP1R (setting [1]) is 9.92; on hGIPR (setting [2]) it was 9.55; at hGIPR (setting [4]), 8.94; at hNPY2R (setting [3]), 7.89; at hNPY2R (setting [5]), 7.55.

As for “H-Y[Aib]EGTFTSDYSI[Aib]LEKQAQ[Aib]AFVQWLIK([AEEA-AEEA-γGlu-γGlu-γGlu-γGlu-C18 diacid])GGPESGASLRHYYNWLTRQRY-NH2 [Compound 58, Y-Aib-E-G-T-F-T-S-D-Y-S-I-Aib-L-E-K-Q-A-Q-Aib-A-F-V-Q-W-L-I-K(1,3)-GGPESGASLRHYYNWLTRQRY-NH2.C18DA-gGlu-gGlu-gGlu-gGlu-OEG-OEG(1,2)]”, the pEC50 on hGLP1R (setting [1]) was 10.30; at hGLP1R (setting [6]) it was 8.70; on hGIPR (setting [2]) it was 9.62; at hGIPR (setting [4]) it was 9.51; at hNPY2R (setting [3]) it was 7.99.

With “H-Y[Aib]EGTFTSDYSI[Aib]LEKQAQ[Aib]AFVEWLIK([εLys-γGlu-γGlu-γGlu-γGlu-γGlu-γGlu-C20 diacid])GGPSSGAS[Aib]RHYYNWLTRQR[dY]-NH2 [Compound 74, Y-Aib-E-G-T-F-T-S-D-Y-S-I-Aib-L-E-K-Q-A-Q-Aib-A-F-V-E-W-L-I-K(1,3)-G-G-P-S-S-G-A-S-Aib-R-H-Y-Y-N-W-L-T-R-Q-R-DTyr-NH2.C20DA-gGlu-gGlu-gGlu-gGlu-gGlu-gGlu-eLys(1,2)]”, the pEC50 at hGLP1R (setting [1]) was 10.10; on hGLP1R (setting [6]), 8.95; on hGIPR (setting [2]) it was 10.00; on hGIPR (setting [4]), 9.21; on hNPY2R (setting [3]), 7.27.

As to “H-Y[Aib]EGTFTSDYSI[Aib]LEKQAQ[Aib]AFVEWLIK([εLys-γGlu-γGlu-γGlu-γGlu-γGlu-γGlu-C20 diacid])GGPSSPQSLRHYYNWLTRQRY-NH2 [Compound 41, Y-Aib-E-G-T-F-T-S-D-Y-S-I-Aib-L-E-K-Q-A-Q-Aib-A-F-V-E-W-L-I-K(1,3)-GGPSSPQSLRHYYNWLTRQRY-NH2.C20DA-gGlu-gGlu-gGlu-gGlu-gGlu-gGlu-eLys(1,2)]”, the pEC50 on hGLP1R (setting [1]) was 10.22; at hGIPR (setting [2]), 10.15; at hGIPR (setting [4]), 9.21; at hNPY2R (setting [3]), 7.99; on hNPY2R (setting [5]), 7.46.

On to “H-Y[Aib]EGTFTSDYSI[Aib]LEAQAQ[Aib]AFVEWLIK([εLys-γGlu-γGlu-γGlu-γGlu-γGlu-γGlu-C20 diacid])GGPSSGASLRHYYNWLTRQRY-NH2 [Compound 102, Y-Aib-E-G-T-F-T-S-D-Y-S-I-Aib-L-E-A-Q-A-Q-Aib-A-F-V-E-W-L-I-K(1,3)-GGPSSGASLRHYYNWLTRQRY-NH2.C20DA-gGlu-gGlu-gGlu-gGlu-gGlu-gGlu-eLys(1,2)]”, for which the pEC50 is 9.48 at hGLP1R (setting [1]), 9.01 on hGIPR (setting [2]) and 7.60 at hNPY2R (setting [3]).

As for “H-Y[Aib]EGTFTSDYSI[Aib]LEKQAQ[Aib]AFVEWLIK([εLys-γGlu-γGlu-γGlu-γGlu-γGlu-C18 diacid])GGPSEPASLRHYYNWLTRQRY-NH2 [Compound 263, Y-Aib-E-G-T-F-T-S-D-Y-S-I-Aib-L-E-K-Q-A-Q-Aib-A-F-V-E-W-L-I-K(1,3)-GGPSEPASLRHYYNWLTRQRY-NH2.C18DA-gGlu-gGlu-gGlu-gGlu-gGlu-eLys(1,2)]”, the pEC50 at hGLP1R (setting [1]) is 9.49; at hGIPR (setting [2]), 9.92; at hGIPR (setting [4]), 8.82; on hNPY2R (setting [3]), 7.80.

Consider “H-Y[Aib]EGTFTSDYSI[Aib]LEKQAQ[Aib]AFVEWLIK([εLys-γGlu-γGlu-γGlu-γGlu-γGlu-γGlu-C20 diacid])GGPSEGASLRHYYNWLTRQ[NMeR]Y-NH2 [Compound 236, Y-Aib-E-G-T-F-T-S-D-Y-S-I-Aib-L-E-K-Q-A-Q-Aib-A-F-V-E-W-L-I-K(1,3)-G-G-P-S-E-G-A-S-L-R-H-Y-Y-N-W-L-T-R-Q-NMeR-Y-NH2.C20DA-gGlu-gGlu-gGlu-gGlu-gGlu-gGlu-eLys(1,2)]”, for which the pEC50 at hGLP1R (setting [1]) was 9.59; on hGIPR (setting [2]) it was 9.52; on hNPY2R (setting [3]) it was 7.51.

For the origin of these results see patent US20240247080A1, “GLP1/GIP/NPY2 RECEPTOR TRIPLE AGONISTS” (Boehringer Ingelheim International GmbH, priority 2022, published 2024).
